Results reported in patent US9353090B2, “Heterocyclic carboxylic acids as activators of soluble guanylate cyclase” (Boehringer Ingelheim International GmbH, priority 2014, dated 2016).
In brackets after ≈: the same amount, converted by molar mass.

Key:
[1] = target: human soluble guanylate cyclase alpha 1 and beta 1 subunits (sGC) (Homo sapiens (Human), UniProt Q02108+Q02153); experiment: sGC cellular activator assay (cGMP, HTRF), in the presence and absence of 50% human serum; format: cell-based; conditions: CHO cells stably expressing human sGC alpha 1/beta 1, preincubated with 40 microM ODQ; cGMP by HTRF; Table 2 does not state whether with or without 50% human serum
Chain of human soluble guanylate cyclase alpha 1 and beta 1 subunits (sGC) (Q02108 whole entry partner): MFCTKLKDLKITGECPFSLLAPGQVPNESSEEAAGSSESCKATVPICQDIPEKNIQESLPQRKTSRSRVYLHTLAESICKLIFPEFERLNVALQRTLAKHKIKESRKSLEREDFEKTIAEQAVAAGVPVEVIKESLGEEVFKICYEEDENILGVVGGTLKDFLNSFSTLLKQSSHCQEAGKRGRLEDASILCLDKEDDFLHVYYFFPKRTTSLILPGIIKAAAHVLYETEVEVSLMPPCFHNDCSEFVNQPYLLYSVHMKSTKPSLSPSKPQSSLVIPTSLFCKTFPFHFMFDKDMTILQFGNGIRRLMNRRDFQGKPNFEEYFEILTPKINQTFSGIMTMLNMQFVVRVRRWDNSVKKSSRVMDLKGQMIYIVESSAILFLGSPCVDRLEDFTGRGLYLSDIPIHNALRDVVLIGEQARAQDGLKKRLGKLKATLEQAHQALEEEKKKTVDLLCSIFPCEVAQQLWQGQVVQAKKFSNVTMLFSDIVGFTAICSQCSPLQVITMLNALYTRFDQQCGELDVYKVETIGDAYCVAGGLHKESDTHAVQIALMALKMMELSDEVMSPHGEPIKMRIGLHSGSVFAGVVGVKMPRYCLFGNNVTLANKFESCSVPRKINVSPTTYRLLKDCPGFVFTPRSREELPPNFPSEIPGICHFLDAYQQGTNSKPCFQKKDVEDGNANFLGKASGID
Chain of human soluble guanylate cyclase alpha 1 and beta 1 subunits (sGC) (Q02153 whole entry): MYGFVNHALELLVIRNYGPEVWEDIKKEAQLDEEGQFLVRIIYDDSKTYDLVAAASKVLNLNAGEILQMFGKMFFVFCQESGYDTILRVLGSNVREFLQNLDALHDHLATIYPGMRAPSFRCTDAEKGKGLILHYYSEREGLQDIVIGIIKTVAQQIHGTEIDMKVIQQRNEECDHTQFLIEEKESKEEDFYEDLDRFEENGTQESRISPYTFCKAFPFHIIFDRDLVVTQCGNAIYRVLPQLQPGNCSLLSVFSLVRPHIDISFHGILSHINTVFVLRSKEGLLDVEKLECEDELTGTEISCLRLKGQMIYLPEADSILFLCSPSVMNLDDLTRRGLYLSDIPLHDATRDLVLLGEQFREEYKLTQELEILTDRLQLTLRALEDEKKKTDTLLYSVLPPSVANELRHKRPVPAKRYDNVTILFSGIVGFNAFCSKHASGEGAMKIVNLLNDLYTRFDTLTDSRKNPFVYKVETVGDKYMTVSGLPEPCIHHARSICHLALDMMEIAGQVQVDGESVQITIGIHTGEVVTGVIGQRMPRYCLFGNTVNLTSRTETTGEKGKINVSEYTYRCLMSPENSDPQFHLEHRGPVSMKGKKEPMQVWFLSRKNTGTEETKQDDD
Protocol: The sGC cellular activator assay is performed in the presence and absence of 50% human serum (HS) using Chinese hamster ovary cells that have been stably transfected to express the human soluble guanylate cyclase alpha 1 and beta 1 subunits (sGC). Cells are preincubated with 40 microM 1H-[1,2,4]oxadiazolo[4,3-a]quinoxalin-1-one (ODQ), an sGC inhibitor, for one h in buffer containing 0.1% bovine serum albumin and 3-isobutyl-1-methylxanthine (IBMX). Concentration response curves are prepared for test compounds in DMSO. An intermediate dilution of the compounds is performed in either buffer containing IBMX or type AB HS containing IBMX. Diluted compounds are added to cells and they are incubated at room temperature for thirty min. cGMP is measured using a CisBio homogeneous time resolved fluorescence kit and the EC50 is calculated for each compound.
Representative compounds of the present invention were tested for activity the above assay. Preferred compounds have an EC50 of <1,000 nM in the above assay and more preferred compounds have an EC50<200 nM.

[2] = Human liver microsome (HLM) metabolic stability assay; format: in vitro ADME; conditions: human liver microsomes
Protocol: The 5 time point, high-throughput human liver microsome (HLM) metabolic stability assay is designed to determine in vitro compound metabolism. Compounds are incubated with HLMs at a concentration of 1 uM, at 37° C., for a total of 60 min. The percent of compound remaining at 5, 15, 30, and 60 min is used to calculate the t1/2 (min), CLint (mL/min/kg), CLh (mL/min/kg), and % Qh. The assay is based on a 96-well format and can accommodate up to 92 compounds per plate (n=1).
Using the 96-well multi-channel head, the Biomek FX, equipped with a Peltier heating block/shaker, is programmed to accomplish the following steps: • 1. Pipette 175 uL of 1.15 mg/mL microsomes into each of the 96 conical inserts (Analytical Sales and Products, catalog number 96PL05) that fit into the plate of the Peltier heating block/shaker (the incubation plate) • 2. Add 5 uL of compounds from the assay plate to the microsomes and shake the mixture at 600 rpm at 42.1° C. for 10 min (a setting of 42.1° C. on the Peltier is required for the samples to incubate at 37° C.) • 3. After 10 min, prompt the user to add the NADPH plate to the deck and add 20 uL from the NADPH plate to the incubation plate to start the reaction • 4. Add 215 uL of 100%, cold acetonitrile containing an internal standard(s) to a 0 minute, 5 minute, 15 minute, 30 minute, and 60 minute “quench” plate • 5. At 0 min, 5 min, 15 min, 30 min, and 60 min into the incubation, aspirate 12 uL from the incubation mixture and add it to the quench solution to stop the reaction • 6. Add 185 uL HPLC grade water to each well of the 0, 5, 15, 30 and 60 minute quench plates to dilute compounds to the appropriate concentration for the mass spectrometer
After all time points are collected, the quench plates are sealed with 96-well pierceable plate mats or heat sealing foil and centrifuged at 3000 rpm for 15 min to pellet the microsomes.
The plates are analyzed using LC/MS/MS with electron spray ionization (ESI) and the previously determined MRM transitions. The LC method includes the following parameters:
Using an Excel template in Activitybase, the peak areas corresponding to 5, 15, 30 and 60 min are compared to the peak area at 0 min to calculate the percent of remaining compound using the following equation:
Percent compound remaining=(AUC at Time t min/AUC at Time 0 min)×100 where t=0, 5, 15, 30 or 60 min.
Time (min) is plotted against the natural logarithm (Ln) of the percent compound remaining to determine the slope. The slope is used to calculate t1/2 (min) using the equation, t1/2=0.693/slope.
Clh, Hepatic clearance • Hepatic flow*f(u)*Clint/(hepatic flow+f(u)*Clint)
Qh, % Hepatic blood flow • (Clh/Hepatic flow)*100
Preferred compounds have % Qh values of less than 24.

[3] = physchem; conditions: kinetic from dmso stock
[4] = pH 2.2, aqueous buffer, Solubility (pH 2.2)
[5] = pH 4.5, aqueous buffer, Solubility (pH 4.5)
[6] = pH 6.8, aqueous buffer, Solubility (pH 6.8)

Compound	EC50 [1] [nM]	Metabolic stability (Qh %), % hepatic blood flow [2] [%]	solubility at 24 h [3, 4] [µg/mL]	solubility at 24 h [3, 5] [µg/mL]	solubility at 24 h [3, 6] [µg/mL]
COC[C@H]1N(c2cccc(-c3cccc(C)c3OCc3ccc4c(c3)CCN(C3COC3)C4)n2)C[C@@H]2C[C@@]21C(=O)O [Compound 43]	63	<24	140 (≈ 252 µM)	120 (≈ 216 µM)	97 (≈ 175 µM)
COC[C@H]1N(c2cccc(-c3cccc(C)c3OCc3ccc4c(c3)CCN(C3CCOCC3)C4)n2)C[C@@H]2C[C@@]21C(=O)O [Compound 44]	58	<24	130 (≈ 223 µM)	110 (≈ 188 µM)	86 (≈ 147 µM)
COC[C@H]1N(c2cccc(-c3cccc(C)c3OCc3ccc4c(c3C)CCN(C3CCOCC3)C4)n2)C[C@@H]2C[C@@]21C(=O)O [Compound 46]	18	<24	110 (≈ 184 µM)	96 (≈ 161 µM)	77 (≈ 129 µM)
COC[C@H]1N(c2cccc(-c3cccc(C)c3OCc3cc(C)c4c(c3)CCN(C3CCOCC3)C4)n2)C[C@@H]2C[C@@]21C(=O)O [Compound 48]	18	<24	110 (≈ 184 µM)	69 (≈ 115 µM)	83 (≈ 139 µM)
COC[C@H]1N(c2cccc(-c3cccc(C)c3OCc3cc(C)c4c(c3)CCN(C3COC3)C4)n2)C[C@@H]2C[C@@]21C(=O)O [Compound 49]	12	<24	120 (≈ 211 µM)	95 (≈ 167 µM)	82 (≈ 144 µM)
COC[C@H]1N(c2cccc(-c3cccc(C)c3OCc3cc(C)c4c(c3)CCN(C3CCOC3)C4)n2)C[C@@H]2C[C@@]21C(=O)O (stereo partly shown) [Compound 50]	8	26	120 (≈ 206 µM)	96 (≈ 164 µM)	77 (≈ 132 µM)
CCc1cc(COc2c(C)cccc2-c2cccc(N3C[C@@H]4C[C@]4(C(=O)O)[C@H]3COC)n2)cc2c1CN(C1CCOCC1)CC2 [Compound 53]	9	<24	130 (≈ 212 µM)	110 (≈ 180 µM)	80 (≈ 131 µM)
CCc1cc(COc2c(C)cccc2-c2cccc(N3C[C@@H]4C[C@]4(C(=O)O)[C@H]3COC)n2)cc2c1CN(C1COC1)CC2 [Compound 54]	16	39	130 (≈ 223 µM)	90 (≈ 154 µM)	81 (≈ 139 µM)
CCc1cc(COc2c(C)cccc2-c2cccc(N3C[C@@H]4C[C@]4(C(=O)O)[C@H]3COC)n2)cc2c1CN(C1CCOC1)CC2 (stereo partly shown) [Compound 55]	10	<24	150 (≈ 251 µM)	110 (≈ 184 µM)	82 (≈ 137 µM)
CCc1cc(COc2c(C)cccc2-c2cccc(N3C[C@@H]4C[C@]4(C(=O)O)[C@H]3COC)n2)cc2c1CN(CC1COCCO1)CC2 (stereo partly shown) [Compound 56]	26	<24	140 (≈ 223 µM)	120 (≈ 191 µM)	88 (≈ 140 µM)
COC[C@H]1N(c2cccc(-c3cccc(C)c3OCc3cc4c(c(OC)c3)CN(C3CCOCC3)CC4)n2)C[C@@H]2C[C@@]21C(=O)O [Compound 57]	21	<24	120 (≈ 196 µM)	99 (≈ 161 µM)	78 (≈ 127 µM)
COC[C@H]1N(c2cccc(-c3cccc(C)c3OCc3cc4c(c(OC)c3)CN(C3COC3)CC4)n2)C[C@@H]2C[C@@]21C(=O)O [Compound 58]	30	<24	110 (≈ 188 µM)	90 (≈ 154 µM)	80 (≈ 137 µM)
COC[C@H]1N(c2cccc(-c3cccc(C)c3OCc3cc(C)c4c(c3F)CCN(C3CCOCC3)C4)n2)C[C@@H]2C[C@@]21C(=O)O [Compound 59]	8	<24	120 (≈ 195 µM)	99 (≈ 161 µM)	74 (≈ 120 µM)
COC[C@@H]1N(c2cccc(-c3cccc(C)c3OCc3cc(C)c4c(c3)CCN(C3CCOCC3)C4)n2)C[C@@H]2C[C@@]21C(=O)O [Compound 62]	465	<24	130 (≈ 217 µM)	130 (≈ 217 µM)	130 (≈ 217 µM)
COC[C@@H]1N(c2cccc(-c3cccc(C)c3OCc3cc(C)c4c(c3)CCN(C3CCOCC3)C4)n2)C[C@H]2C[C@]21C(=O)O [Compound 63]	96	<24	130 (≈ 217 µM)	130 (≈ 217 µM)	130 (≈ 217 µM)

Other lines, results leading:

EC50 [1] [nM]	Metabolic stability (Qh %), % hepatic blood flow [2] [%]	solubility at 24 h [3, 4] [µg/mL]	solubility at 24 h [3, 5] [µg/mL]	solubility at 24 h [3, 6] [µg/mL]	Compound
354	<24	100 (≈ 190 µM)	85 (≈ 162 µM)	59 (≈ 112 µM)	Cc1ccc(OCc2cc(C)c3c(c2)CCN(C2COC2)C3)c(-c2cccc(N3C[C@@H]4C[C@]4(C(=O)O)C3)n2)c1 [Compound 38]
50	<24	100 (≈ 176 µM)	91 (≈ 160 µM)	45 (≈ 79.3 µM)	Cc1ccc(OCc2cc(C)c3c(c2C)CCN(C2CCOCC2)C3)c(-c2cccc(N3C[C@@H]4C[C@]4(C(=O)O)C3)n2)c1 [Compound 39]
38	<24	98 (≈ 182 µM)	79 (≈ 146 µM)	52 (≈ 96.4 µM)	Cc1ccc(OCc2cc(C)c3c(c2C)CCN(C2COC2)C3)c(-c2cccc(N3C[C@@H]4C[C@]4(C(=O)O)C3)n2)c1 [Compound 40]
16	<24	100 (≈ 176 µM)	84 (≈ 148 µM)	45 (≈ 79.3 µM)	Cc1ccc(OCc2ccc3c(c2C)CCN(C2CCOCC2)CC3)c(-c2cccc(N3C[C@@H]4C[C@]4(C(=O)O)C3)n2)c1 [Compound 41]
50	76	96 (≈ 178 µM)	87 (≈ 161 µM)	58 (≈ 107 µM)	Cc1ccc(OCc2ccc3c(c2C)CCN(C2COC2)CC3)c(-c2cccc(N3C[C@@H]4C[C@]4(C(=O)O)C3)n2)c1 [Compound 42]
17	<24	110 (≈ 193 µM)	95 (≈ 167 µM)	84 (≈ 147 µM)	COC[C@H]1N(c2cccc(-c3cccc(C)c3OCc3ccc4c(c3C)CCN(C3COC3)C4)n2)C[C@@H]2C[C@@]21C(=O)O [Compound 47]
6	<24	120 (≈ 206 µM)	100 (≈ 171 µM)	79 (≈ 135 µM)	COC[C@H]1N(c2cccc(-c3cccc(C)c3OCc3ccc4c(c3C)CCN(C3COC3)CC4)n2)C[C@@H]2C[C@@]21C(=O)O [Compound 60]
8	<24	110 (≈ 180 µM)	96 (≈ 157 µM)	74 (≈ 121 µM)	COC[C@H]1N(c2cccc(-c3cccc(C)c3OCc3ccc4c(c3C)CCN(C3CCOCC3)CC4)n2)C[C@@H]2C[C@@]21C(=O)O [Compound 61]
